In article PMC3199744, “Preformulation and stability in biological fluids of the retrocyclin RC-101, a potential anti-HIV topical microbicide” (AIDS Research and Therapy, 2011):
Where two headings read alike, the source gives them in different places.

Tests used:
[1] = RC-101 solution / film control in water, detection by LC-MS/MS; assay type: physicochemical; details: 1:1 with water, 37°C, nanoLC-SRM MS, qualitative
Method: RC-101 100 μg/mL solutions were prepared by dissolving RC-101 in Milli Q water. RC-101 and placebo films were prepared by precasting a polymeric film solution into an 8-well-plate. The polymeric film solution was prepared as previously described by adding Milli Q water, PVA, and hydroxypropyl methyl cellulose (HPMC). The solution was then heated at 95°C for 20 minutes for complete dissolution of the polymers. After cooling, glycerin and RC-101 were added. Film solution (2.4 g) containing RC-101 was poured into each well of the 8-well plate. The plate was placed into a vacuum oven at 30 ± 2°C for 20 ± 4 h. All dried films were removed from the plates and stored at room temperature in PET/Aluminum foil pouches (Amcor Flexibles Healthcare Inc, Mundelein, IL) until further analysis. Placebo films were prepared in the same way without the addition of RC-101. […] For analytical purposes, films were dissolved in 1 mL of Milli Q water before addition to HVF.
(§1) The HVF from the Instead Softcup® was removed by centrifugation of the conical tube for 10 min at 5,000 rpm. […] HVF was then removed from the cup and the pH of each HVF sample was measured with Fisher Alkacid pH filter strips (Fisher Scientific). All samples collected on a specific day were pooled to be used for the research studies. If the pH of the individual samples was higher than 5, the sample was not included in the pool but it was stored at -80°C for separate analysis. If the sample contained blood, it was immediately discarded. Samples were prepared as described in Table 1. […] Because of its high viscosity, HVF was measured by weight and not by volume. All solutions were prepared fresh and incubated with HVF (or water) at 37°C for specific periods of time (0, 2, 6, 12, 24, 48, and 72 h), unless specified otherwise. At each time point, the samples were centrifuged at 10,000 rpm for 10 min to separate the supernatant from the epithelial cells as described in the cell processing section. Both parts (supernatant and cells) were stored at -80 ± C until analyzed by LC-MS/MS. To evaluate the influence of freezing the fluid prior to the analysis, the last pool of HVF was divided into two samples: one used fresh (at the time of collection), and the other one stored at -80°C for a 3-month period. After that time period, HVF was thawed and processed for blank and RC-101 solution only, as described in Table 1. HVF samples collected with a high pH value indicative of BV were stored at -80°C as previously mentioned. After confirmation of BV on those fluid samples by Gram stain score, the fluid samples (HVF BV^+) were thawed, pooled, and processed as described in Table 1.
(§2) At each time point, the sample was removed from the incubation chamber and centrifuged for 10 min at 10,000 rpm, at 4 ± C to separate the supernatant from cell pellet. Supernatant (100 μL) was added to microcentrifuge filters Ultracel YM-10 Microcon MWCO 10,000 (Millipore Corporation, Bedford, MA), which were pre-washed with Milli Q water to eliminate any trace of propylene glycol from the filters. Samples were centrifuged twice for 15 min at 8,500 rpm, at 4 ± C. The filtrate was collected and frozen at -80 ± C until further analysis. A solution of 3 M urea was added to the cell pellet (1:1 w/w) obtained from the first centrifugation, to lyse the cells. This mixture was vortexed three times for 30 sec, and then centrifuged for 10 min at 10,000 rpm, at 4 ± C. The supernatant obtained from the cell lysate was then added to microcentrifuge filters Ultracel YM-10 Microcon MWCO 10,000 pre-washed with Milli Q water. Samples were centrifuged twice for 15 min at 8,500 rpm, at 4 ± C. The filtrate was collected and frozen at -80 ± C until analysis.

[2] = for detection of RC-101 by LC-MS/MS: frozen HVF (-80°C, 3 months) 1:1, 37°C, nanoLC-SRM MS, qualitative
Method: as §1
as §2, with “until analysis. […] Samples were thawed and added to PepCleanTM C-18 spin columns (Pierce Biotechnology Inc., Rockford, IL) for desalting, after column conditioning with acetonitrile:water (50:50) and equilibration with 0.1% trifluoroacetic acid. The column was washed three times with 0.1% trifluoroacetic acid, and RC-101 was eluted with acetonitrile:water (60:40) in 0.1% trifluoroacetic acid. Samples were dried in a speed vacuum CentriVap concentrator (LabConco Corp., Kansas City, MO) and resuspended with 200 μL of Milli Q water for LC-MS/MS analysis. Each sample described in Table 1 originated two sets of samples: one labeled as supernatant and the second one labeled as cells.” for “until analysis.”
Integrated electrospray ionization (ESI)-capillary reversed-phase columns (75 μm inner diameter × 360 μm outer diameter × 100 mm length) packed with 5 μm 300 Å pore size Jupiter C18 reversed-phase stationary phase (Phenomenex) were prepared, as previously described. Solvent flow was supplied by a nanoflow HPLC system (Ultimate 3000, Dionex Corporation, Sunnyvale, CA).

[3] = Oxidation of RC-101 by hydrogen peroxide, HPLC; details: 500 μg/mL
Method: For all pre-formulation studies described below, triplicate solutions of RC-101 (500 μg/mL) were prepared in either water or aqueous buffer solution. Thermal degradation studies were conducted at 25, 37, and 65°C for a minimum period of 1 week. The effect of pH on the stability of RC-101 was evaluated over the pH range from 3 to 12 using 10 mM phosphate buffer solutions, at low (50 mmol/kg) and high (500 mmol/kg) ionic strength. Oxidation of RC-101 was evaluated by exposing a solution of RC-101 to hydrogen peroxide (H2O2) at concentrations of 3.0, 0.08, and 0.002% (v/v). The high H2O2 concentration (3.0%) was selected as a forced degradation concentration. […] Protection against oxidation was investigated by the addition of antioxidants commonly used in pharmaceutical products. The antioxidants used in this study were: methionine (95.2 μg/mL or 250 μg/mL), cysteine (95.2 μg/mL), glutathione (90.9 μg/mL), vitamin E TPGS (90.9 μg/mL), ascorbic acid (1.0 mg/mL), sodium ascorbate (1.0 mg/mL), and EDTA (1.0 μg/mL).
RC-101 concentration after exposure to preformulation conditions was analyzed by HPLC as previously described [11]. Briefly, the HPLC system (Waters Corporation, Milford, MA) was equipped with an autoinjector model 717, a quaternary pump model 600, and an ultraviolet (UV) detector model 2487 set up at 215 nm. Separation of RC-101 from degradant products was achieved using a Phenomenex Jupiter 5 μC5 300 Å (4.6 × 250 mm) column (Phenomenex, Torrance, CA) protected by a Widepore C5 (4 × 3.0 mm) guard cartridge (Phenomenex). The gradient consisted of mobile phase A (0.1% TFA in water (v/v)), and mobile phase B (0.07% TFA in acetonitrile (v/v)) pumped at a flow rate of 1.0 mL/min. […]
HPLC data obtained from the preformulation studies were expressed as the average percentage of the peak area from time 0 ± standard deviation, n = 3. Results were analyzed by one-way analysis of variance (ANOVA) with multiple comparisons of individual time points by using post hoc Bonferroni correction to detect significant differences under different conditions. […]

GICRCICGKGICRCICGR (bicyclic or more) [RC-101]
+: detection of RC-101 by LC-MS/MS ([1]; 0 h) | detection of RC-101 by LC-MS/MS ([1]; 2 h) | detection of RC-101 by LC-MS/MS ([1]; 6 h) | detection of RC-101 by LC-MS/MS ([1]; 12 h) | detection of RC-101 by LC-MS/MS ([1]; 24 h) | detection of RC-101 by LC-MS/MS ([1]; 48 h) | detection of RC-101 by LC-MS/MS ([1]; 72 h) | detection of RC-101 by LC-MS/MS ([2]; 0 h) | detection of RC-101 by LC-MS/MS ([2]; 2 h) | detection of RC-101 by LC-MS/MS ([2]; 6 h) | detection of RC-101 by LC-MS/MS ([2]; 12 h) | detection of RC-101 by LC-MS/MS ([2]; 24 h) | detection of RC-101 by LC-MS/MS ([2]; 48 h)
20%: loss of RC-101 ([3]; 3.0% H2O2 (forced degradation), 4 h, HPLC-UV, n = 3)
No detectable differences: difference in the peptide after incubation with frozen fluid versus fresh HVF ([2]; HVF stored at -80°C for 3 months, thawed, 1:1 with RC-101 100 μg/mL solution, 37°C, LC-MS/MS not quantitative)
slower: degradation rate compared with 3.0% H2O2 ([3]; 0.002% and 0.08% H2O2 (biologically relevant), HPLC)
